Data reported in patent US20240391931A1 (Bristol-Myers Squibb Company, priority 2021, published 2024).

Legend:
HER2 WT = molecular target: T1, HER2 WT (Homo sapiens, UniProt P04626); test: Enzymatic assay HER2 WT (method a); type: biochemical; details: [HER2 WT]=12.5 nM, [ATP]=25 μM, [Peptide 22]=1 μM
T1 construct: purchased ProQinase, Freiburg, Germany ERBB2 0108-0000-1
Summary of the method: (§1)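 Microfluidic mobility-shift kinase assay with Peptide 22 (1 μM) in HEPES pH 7.5, MnCl2, MgCl2, Tween 20, TCEP. HER2 WT 12.5 nM and HER2 YVMA 5 nM each used 25 μM ATP; EGFR WT 2 nM used 1 mM ATP. IC50 came from initial-velocity (0–3600 s) percent inhibition, fitted to a variable-slope model.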

HER2YVMA = HER2YVMA (Homo sapiens, UniProt P04626, INS775YVMA); test: Enzymatic assay HER2YVMA (method b); type: biochemical; design: purchased Viva biotech, Shanghai, China custom purification; details: [HER2YVMA]=5 nM, [ATP]=25 μM, [Peptide 22]=1 μM
Summary of the method: as §1

EGFR = EGFR (Homo sapiens, UniProt P00533); test: EGFR signaling (pEGFR Tyr1068/total EGFR MSD) in A431 cells; type: cell-based; design: endogenous in cells; host or cells: A431, N87; details: for EC50: A431 cells, read-out: A431 pEGFR EC50; for Selectivity A431 EC50/BT474 EC50: ratio A431 pEGFR EC50 to BT474 pHER2 EC50; for Selectivity A431 EC50/HEKYVMA EC50: ratio A431 pEGFR EC50 to HEK YVMA pHER2 EC50
Summary of the method: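 Serum-starved A431 cells were pretreated 1.5 h in 1% FBS with compound (0.005–10 μM, 0.1% DMSO), then stimulated with 100 ng/mL human EGF for 10 min. Lysate pEGFR Tyr1068 was measured by MSD and normalized to total EGFR as % DMSO control; EC50 from variable-slope sigmoidal fit.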

HER2YVMA, sequence (P04626 with tags, fused parts or gaps INS775YVMA): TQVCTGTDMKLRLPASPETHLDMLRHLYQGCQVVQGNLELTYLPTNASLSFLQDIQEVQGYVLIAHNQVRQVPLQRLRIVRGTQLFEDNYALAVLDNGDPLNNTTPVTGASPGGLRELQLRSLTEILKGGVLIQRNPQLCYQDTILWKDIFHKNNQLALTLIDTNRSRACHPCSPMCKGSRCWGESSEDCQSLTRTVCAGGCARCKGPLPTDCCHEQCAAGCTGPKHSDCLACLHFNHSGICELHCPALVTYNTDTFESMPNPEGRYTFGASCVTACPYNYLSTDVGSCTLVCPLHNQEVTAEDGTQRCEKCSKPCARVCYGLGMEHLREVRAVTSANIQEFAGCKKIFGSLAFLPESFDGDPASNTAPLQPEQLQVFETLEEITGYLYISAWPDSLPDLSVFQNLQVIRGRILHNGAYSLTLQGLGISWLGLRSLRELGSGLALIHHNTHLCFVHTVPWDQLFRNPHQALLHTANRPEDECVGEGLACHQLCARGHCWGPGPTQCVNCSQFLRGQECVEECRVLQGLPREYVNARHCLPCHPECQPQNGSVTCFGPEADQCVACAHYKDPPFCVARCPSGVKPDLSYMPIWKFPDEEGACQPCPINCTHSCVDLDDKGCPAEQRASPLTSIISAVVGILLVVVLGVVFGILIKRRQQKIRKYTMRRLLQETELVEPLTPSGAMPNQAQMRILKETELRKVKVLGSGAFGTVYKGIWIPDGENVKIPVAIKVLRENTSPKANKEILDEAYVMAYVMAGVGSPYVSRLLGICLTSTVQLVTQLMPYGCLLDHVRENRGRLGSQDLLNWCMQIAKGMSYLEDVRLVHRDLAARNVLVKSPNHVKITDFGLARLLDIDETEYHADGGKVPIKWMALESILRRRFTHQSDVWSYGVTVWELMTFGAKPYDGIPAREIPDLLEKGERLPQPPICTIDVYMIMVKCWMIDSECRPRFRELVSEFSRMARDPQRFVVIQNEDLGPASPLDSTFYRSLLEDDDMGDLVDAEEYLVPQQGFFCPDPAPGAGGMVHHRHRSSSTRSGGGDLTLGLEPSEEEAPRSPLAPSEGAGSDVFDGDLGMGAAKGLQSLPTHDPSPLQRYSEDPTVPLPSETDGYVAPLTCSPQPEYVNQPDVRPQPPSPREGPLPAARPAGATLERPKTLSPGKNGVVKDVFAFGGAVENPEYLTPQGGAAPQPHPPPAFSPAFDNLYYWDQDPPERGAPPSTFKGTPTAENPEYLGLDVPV
EGFR, sequence (P00533 25-1210): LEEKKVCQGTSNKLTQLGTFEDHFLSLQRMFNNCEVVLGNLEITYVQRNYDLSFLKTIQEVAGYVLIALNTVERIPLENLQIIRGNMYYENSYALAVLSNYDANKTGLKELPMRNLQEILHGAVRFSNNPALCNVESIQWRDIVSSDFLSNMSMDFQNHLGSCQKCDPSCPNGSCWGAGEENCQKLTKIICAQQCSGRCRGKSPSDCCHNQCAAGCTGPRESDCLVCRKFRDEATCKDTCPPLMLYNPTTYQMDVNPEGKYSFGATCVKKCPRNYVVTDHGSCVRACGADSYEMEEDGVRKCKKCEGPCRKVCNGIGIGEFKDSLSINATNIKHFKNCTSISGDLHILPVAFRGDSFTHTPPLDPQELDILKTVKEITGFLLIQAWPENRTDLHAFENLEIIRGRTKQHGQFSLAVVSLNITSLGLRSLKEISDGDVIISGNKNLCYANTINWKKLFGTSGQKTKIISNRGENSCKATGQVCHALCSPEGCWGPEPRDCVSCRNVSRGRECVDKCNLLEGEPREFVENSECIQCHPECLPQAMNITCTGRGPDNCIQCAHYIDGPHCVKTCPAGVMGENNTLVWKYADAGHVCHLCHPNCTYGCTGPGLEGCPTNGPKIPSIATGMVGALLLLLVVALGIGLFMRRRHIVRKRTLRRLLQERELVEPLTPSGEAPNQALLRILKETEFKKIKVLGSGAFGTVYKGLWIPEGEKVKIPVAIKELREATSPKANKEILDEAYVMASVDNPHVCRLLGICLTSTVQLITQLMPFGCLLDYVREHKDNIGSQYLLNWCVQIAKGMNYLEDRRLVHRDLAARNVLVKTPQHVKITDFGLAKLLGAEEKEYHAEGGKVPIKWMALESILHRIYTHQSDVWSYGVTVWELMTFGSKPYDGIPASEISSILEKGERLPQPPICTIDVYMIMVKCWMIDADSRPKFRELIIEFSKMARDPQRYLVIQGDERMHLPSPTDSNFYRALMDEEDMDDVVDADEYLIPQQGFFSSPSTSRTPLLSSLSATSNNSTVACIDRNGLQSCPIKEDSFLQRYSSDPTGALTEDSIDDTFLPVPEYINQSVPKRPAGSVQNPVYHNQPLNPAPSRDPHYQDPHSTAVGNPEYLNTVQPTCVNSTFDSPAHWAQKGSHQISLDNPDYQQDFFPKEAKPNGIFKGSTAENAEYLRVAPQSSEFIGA
T1 sequence (P04626 23-1255): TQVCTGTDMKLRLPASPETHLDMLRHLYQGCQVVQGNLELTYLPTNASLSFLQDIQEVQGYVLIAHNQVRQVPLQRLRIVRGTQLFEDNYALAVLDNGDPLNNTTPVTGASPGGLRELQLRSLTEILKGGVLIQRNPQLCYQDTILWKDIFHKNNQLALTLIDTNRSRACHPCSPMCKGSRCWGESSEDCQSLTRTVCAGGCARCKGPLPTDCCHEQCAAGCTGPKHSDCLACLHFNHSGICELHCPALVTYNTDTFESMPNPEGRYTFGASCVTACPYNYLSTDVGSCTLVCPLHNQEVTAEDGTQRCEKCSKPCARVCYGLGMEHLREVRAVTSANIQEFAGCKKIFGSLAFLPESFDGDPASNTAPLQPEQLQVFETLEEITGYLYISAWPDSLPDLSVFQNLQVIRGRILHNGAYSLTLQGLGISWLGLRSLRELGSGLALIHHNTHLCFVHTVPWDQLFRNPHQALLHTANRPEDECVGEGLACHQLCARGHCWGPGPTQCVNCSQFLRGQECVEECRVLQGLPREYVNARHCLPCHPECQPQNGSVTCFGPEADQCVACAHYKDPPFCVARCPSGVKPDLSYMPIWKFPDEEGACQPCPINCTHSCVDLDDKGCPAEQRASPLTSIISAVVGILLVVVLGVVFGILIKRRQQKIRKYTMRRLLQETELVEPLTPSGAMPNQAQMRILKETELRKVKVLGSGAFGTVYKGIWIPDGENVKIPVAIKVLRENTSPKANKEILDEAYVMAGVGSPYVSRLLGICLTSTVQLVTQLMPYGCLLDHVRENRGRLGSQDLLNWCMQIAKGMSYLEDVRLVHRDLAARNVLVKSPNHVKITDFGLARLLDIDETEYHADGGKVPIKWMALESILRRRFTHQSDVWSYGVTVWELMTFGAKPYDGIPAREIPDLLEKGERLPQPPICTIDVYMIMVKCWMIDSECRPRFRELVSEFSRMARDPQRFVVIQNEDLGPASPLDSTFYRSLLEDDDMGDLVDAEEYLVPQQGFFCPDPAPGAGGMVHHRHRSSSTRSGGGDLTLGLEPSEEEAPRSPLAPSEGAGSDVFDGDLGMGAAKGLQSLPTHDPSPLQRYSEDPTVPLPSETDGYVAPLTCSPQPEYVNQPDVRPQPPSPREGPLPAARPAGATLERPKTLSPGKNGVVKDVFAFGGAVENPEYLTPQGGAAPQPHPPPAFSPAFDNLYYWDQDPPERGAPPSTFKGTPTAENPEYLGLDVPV

| Compound | IC50 (HER2 WT) [µM] | IC50 (HER2YVMA) [µM] | EC50 (EGFR) [µM] | Selectivity A431 EC50/BT474 EC50 (EGFR) | Selectivity A431 EC50/HEKYVMA EC50 (EGFR) |
| --- | --- | --- | --- | --- | --- |
| Cc1ncc(Oc2ccc(Nc3ncnc4sc5c(c34)CCN(C(=O)/C=C/CN(C)C)C5)cc2C)cn1 [Compound 21, (E)-4-(dimethylamino)-1-(4-((3-methyl-4-((2-methylpyrimidin-5-yl)oxy)phenyl)amino)-5,8-dihydropyrido[4′,3′:4,5]thieno[2,3-d]pyrimidin-7(6H)-yl)but-2-en-1-one] | 0.1 to 1 | 0.1 to 1 | 0.1 to 1 | B (B: ≥ 20 and < 100) | B (B: ≥ 20 and < 100) |
| Cc1ccc(Oc2ccc(Nc3ncnc4sc5c(c34)CCN(C(=O)/C=C/CN3CC4CC3CO4)C5)cc2C)cn1 (stereo not shown) [Compound 26] | < 0.1 | < 0.1 | < 0.1 | D (D: ≥ 5 and < 10) | D (D: ≥ 5 and < 10) |
| Cc1ccc(Oc2ccc(Nc3ncnc4sc5c(c34)CCN(C(=O)/C=C/CN(C)C(C)(C)C)C5)cc2C)cn1 [Compound 33] | < 0.1 | < 0.1 | 0.1 to 1 | B (B: ≥ 20 and < 100) | C (C: ≥ 10 and < 20) |
| Cc1ccc(Oc2ccc(Nc3ncnc4sc5c(c34)CCN(C(=O)/C=C/CN3CC4C(CO)C4C3)C5)cc2C)cn1 (stereo not shown) [Compound 34] | < 0.1 | < 0.1 | 0.1 to 1 | C (C: ≥ 10 and < 20) | E (E: >1 and < 5) |
| Cc1ccc(Oc2ccc(Nc3ncnc4sc5c(c34)CCN(C(=O)/C=C/CN(CCO)CCO)C5)cc2C)cn1 [Compound 37] | < 0.1 | < 0.1 | > 10 | A (A: ≥100) | B (B: ≥ 20 and < 100) |
| Cc1ccc(Oc2ccc(Nc3ncnc4sc5c(c34)CCN(C(=O)/C=C/CNC3COC3)C5)cc2C)cn1 [Compound 38] | < 0.1 | < 0.1 | 0.1 to 1 | C (C: ≥ 10 and < 20) | D (D: ≥ 5 and < 10) |
| CNC(=O)CNC/C=C/C(=O)N1CCc2c(sc3ncnc(Nc4ccc(Oc5ccc(C)nc5)c(C)c4)c23)C1 [Compound 39] | < 0.1 | < 0.1 | 1 to 10 | C (C: ≥ 10 and < 20) | D (D: ≥ 5 and < 10) |
| Cc1ccc(Oc2ccc(Nc3ncnc4sc5c(c34)CCN(C(=O)/C=C/CNC3CC3)C5)cc2C)cn1 [Compound 40] | < 0.1 | < 0.1 | < 0.1 | B (B: ≥ 20 and < 100) | B (B: ≥ 20 and < 100) |
| Cc1ccc(Oc2ccc(Nc3ncnc4sc5c(c34)CCN(C(=O)/C=C/CN3CCCC3C(N)=O)C5)cc2C)cn1 (stereo not shown) [Compound 41] | < 0.1 | < 0.1 | < 0.1 | B (B: ≥ 20 and < 100) | C (C: ≥ 10 and < 20) |
| Cc1ccc(Oc2ccc(Nc3ncnc4sc5c(c34)CCN(C(=O)/C=C/CN3CCCOCC3)C5)cc2C)cn1 [Compound 42] | < 0.1 | < 0.1 | 0.1 to 1 | B (B: ≥ 20 and < 100) | B (B: ≥ 20 and < 100) |
| Cc1ccc(Oc2ccc(Nc3ncnc4sc5c(c34)CCN(C(=O)/C=C/CN3CC(O)CO3)C5)cc2C)cn1 (stereo not shown) [Compound 43] | 0.1 to 1 | 0.1 to 1 | > 10 | B (B: ≥ 20 and < 100) | C (C: ≥ 10 and < 20) |
| Cc1ccc(Oc2ccc(Nc3ncnc4sc5c(c34)CCN(C(=O)/C=C/CN3C4CCC3CC4)C5)cc2C)cn1 [Compound 44] | < 0.1 | < 0.1 | 0.1 to 1 | D (D: ≥ 5 and < 10) | E (E: >1 and < 5) |
| Cc1ccc(Oc2ccc(Nc3ncnc4sc5c(c34)CCN(C(=O)/C=C/CNCCS(C)(=O)=O)C5)cc2C)cn1 [Compound 45] | < 0.1 | < 0.1 | 0.1 to 1 | C (C: ≥ 10 and < 20) | D (D: ≥ 5 and < 10) |
| CCN1CCN(C/C=C/C(=O)N2CCc3c(sc4ncnc(Nc5ccc(Oc6ccc(C)nc6)c(C)c5)c34)C2)CC1 [Compound 46] | 0.1 to 1 | 0.1 to 1 | 1 to 10 | B (B: ≥ 20 and < 100) | C (C: ≥ 10 and < 20) |
| Cc1ccc(Oc2ccc(Nc3ncnc4sc5c(c34)CCN(C(=O)/C=C/CNC3CCOC3)C5)cc2C)cn1 (stereo not shown) [Compound 47] | < 0.1 | < 0.1 | 0.1 to 1 | C (C: ≥ 10 and < 20) | C (C: ≥ 10 and < 20) |
| Cc1ccc(Oc2ccc(Nc3ncnc4sc5c(c34)CCN(C(=O)/C=C/CNCC3CN(C)CCO3)C5)cc2C)cn1 (stereo not shown) [Compound 48] | < 0.1 | < 0.1 | 0.1 to 1 | B (B: ≥ 20 and < 100) | B (B: ≥ 20 and < 100) |
| Cc1ccc(Oc2ccc(Nc3ncnc4sc5c(c34)CCN(C(=O)/C=C/CNCc3cc(C)n[nH]3)C5)cc2C)cn1 [Compound 49] | < 0.1 | < 0.1 | 0.1 to 1 | B (B: ≥ 20 and < 100) | D (D: ≥ 5 and < 10) |

More lines, now with the values ahead:

| IC50 (HER2 WT) [µM] | IC50 (HER2YVMA) [µM] | EC50 (EGFR) [µM] | Selectivity A431 EC50/BT474 EC50 (EGFR) | Selectivity A431 EC50/HEKYVMA EC50 (EGFR) | Compound |
| --- | --- | --- | --- | --- | --- |
| < 0.1 | < 0.1 | 0.1 to 1 | C (C: ≥ 10 and < 20) | D (D: ≥ 5 and < 10) | Cc1ccc(Oc2ccc(Nc3ncnc4sc5c(c34)C(C)CN(C(=O)C=CCN(C)C)C5)cc2C)cn1 (single isomer, unassigned) [Compound 105] |
| < 0.1 | < 0.1 | 0.1 to 1 | B (B: ≥ 20 and < 100) | C (C: ≥ 10 and < 20) | Cc1ccc(Oc2ccc(Nc3ncnc4sc5c(c34)C(C)CN(C(=O)C=CCN(C)C)C5)cc2C)cn1 (single isomer, unassigned) [Compound 106] |
| < 0.1 | 0.1 to 1 | 0.1 to 1 | B (B: ≥ 20 and < 100) | E (E: >1 and < 5) | Cc1cc(Nc2ncnc3sc4c(c23)CCN(C(=O)/C=C/CN(C)C)C4)ccc1Oc1ccc2ncnn2c1 [Compound 3, (E)-1-(4-((4-([1,2,4]triazolo[1,5-a]pyridin-6-yloxy)-3-methylphenyl)amino)-5,8-dihydropyrido[4′,3′:4,5]thieno[2,3-d]pyrimidin-7(6H)-yl)-4-(dimethylamino)but-2-en-1-one] |
| < 0.1 | < 0.1 | 0.1 to 1 | B (B: ≥ 20 and < 100) | A (A: ≥100) | C=CC(=O)N1CCc2c(sc3ncnc(Nc4ccc(Oc5ccc6ncnn6c5)c(Cl)c4)c23)C1 [Compound 4, 1-(4-((4-([1,2,4]triazolo[1,5-a]pyridin-6-yloxy)-3-chlorophenyl)amino)-5,8-dihydropyrido[4′,3′:4,5]thieno[2,3-d]pyrimidin-7(6H)-yl)prop-2-en-1-one] |
| < 0.1 | < 0.1 | 0.1 to 1 | – | B (B: ≥ 20 and < 100) | CN(C)C/C=C/C(=O)N1CCc2c(sc3ncnc(Nc4ccc(Oc5ccc6ncnn6c5)c(Cl)c4)c23)C1 [Compound 5, (E)-1-(4-((4-([1,2,4]triazolo[1,5-a]pyridin-6-yloxy)-3-chlorophenyl)amino)-5,8-dihydropyrido[4′,3′:4,5]thieno[2,3-d]pyrimidin-7(6H)-yl)-4-(dimethylamino)but-2-en-1-one] |
| < 0.1 | < 0.1 | < 0.1 | B (B: ≥ 20 and < 100) | B (B: ≥ 20 and < 100) | Cc1cc(Nc2ncnc3sc4c(c23)CCN(C(=O)/C=C/CN2CC3CCC(C3)C2)C4)ccc1Oc1ccc2ncnn2c1 [Compound 20] |
| < 0.1 | < 0.1 | < 0.1 | D (D: ≥ 5 and < 10) | E (E: >1 and < 5) | Cc1cc(Nc2ncnc3sc4c(c23)CCN(C(=O)/C=C/CN(C)C)C4)ccc1Oc1ccc2[nH]ncc2c1 [Compound 22, (E)-1-(4-((4-((1H-indazol-5-yl)oxy)-3-methylphenyl)amino)-5,8-dihydropyrido[4′,3′:4,5]thieno[2,3-d]pyrimidin-7(6H)-yl)-4-(dimethylamino)but-2-en-1-one] |
| < 0.1 | < 0.1 | < 0.1 | D (D: ≥ 5 and < 10) | E (E: >1 and < 5) | Cc1cc(Nc2ncnc3sc4c(c23)CCN(C(=O)/C=C/CN(C)C)C4)ccc1Oc1ccc2cn[nH]c2c1 [Compound 23, (E)-1-(4-((4-((1H-indazol-6-yl)oxy)-3-methylphenyl)amino)-5,8-dihydropyrido[4′,3′:4,5]thieno[2,3-d]pyrimidin-7(6H)-yl)-4-(dimethylamino)but-2-en-1-one] |
